Data published in US11591634B1, “Forecasting bacterial survival-success and adaptive evolution through multiomics stress-response mapping and machine learning” (priority 2019, dated 2023).

Assays:
S. pneumoniae 19F = assay: Fitness outcome under antibiotic exposure (growth curve assay); type: cell-based, Streptococcus pneumoniae
Experimental: (§1) To test whether a gene-panel model can be trained that predicts fitness for many different conditions, a large RNA-Seq dataset was generated for the human pathogen Streptococcus pneumoniae. […] These include cell wall synthesis inhibitors (CWSI), DNA synthesis inhibitors (DSI), protein synthesis inhibitors (PSI) and RNA synthesis inhibitors ((RSI); FIG. 1A, Tables 1 & 2). Each strain was exposed to each antibiotic for 2 to 4 hours and cells were harvested for RNA-Seq at various time points. As T4 and 19F are susceptible to most antibiotics used, the transcriptional profiles in the presence of antibiotics mostly represent cases of low fitness (FIG. 1A, sensitive strain, 1xMICWT). In order to find patterns that differentiate fitness outcomes, adapted strains were generated with increased fitness in the presence of antibiotics by serial passaging wildtype T4 and 19F in the presence of increasing amounts of antibiotics. Four independent adapted populations for each strain were selected on individual antibiotics. These adapted strains could grow in the presence of antibiotic at 1.5xMIC of the wildtype strain, albeit with a small growth defect (FIGS. 6A-6E & 6F). In parallel, RNA-Seq was performed on S. pneumoniae strains D39 and T4 in a chemically defined medium, and media from which either uracil, Glycine or L-Valine was removed, which are essential for D39 but not T4. This enabled the potential identification of a common stress signature that is shared between antibiotic exposure and nutrient deprivation, and across multiple strains. Lastly, D39 was adapted to grow in the absence of each individual nutrient, after which RNA-Seq was repeated for adapted clones (Table 1 lists all 24 strains, 67 populations and 267 RNA-Seq experiments).
(§2) S. pneumoniae strain TIGR4 (T4; NC_003028.3) is a serotype 4 strain originally isolated from a patient^3,4, Taiwan-19F (19F; NC_012469.1) is a multi-drug resistant strain^5,6 and D39 (NC_008533) is a commonly used serotype 2 strain originally isolated from a patient about 90 years ago^7. Strain PG1 and PG19 were isolated from adults with pneumococcal bacteremia infection and included in the Pneumococcal Bacteremia Collection Nijmegen (PBCN)^8. All S. pneumoniae gene numbers refer to the T4 genome. Correspondence between homologous genes among S. pneumoniae strains and gene function annotations are described herewith. Escherichia coli strain AR538, Klebsiella pneumoniae strain AR497 and Salmonella enterica subsp Typhimurium strain AR635 were clinical isolates obtained from the Center of Disease Control (CDC). Staphylococcus aureus strain MN6 was kindly provided by George Sakoulas (Center of Immunity, Infection & Inflammation, UCSD School of Medicine). Unless otherwise specified, S. pneumoniae strains were cultivated in Todd Hewitt medium with 5% yeast extract (THY) with 5 μL/mL oxyrase (Oxyrase, Inc) or on sheep's blood agar plates (Northeastern Laboratories) at 37° C. with 5% CO2. A. baumannii, E. coll. K. pneumoniae, S. aureus and S. Typhimurium were cultured in Mueller Hinton broth II (Sigma) at 37° C. with 220 rpm constant shaking. Tn-Seq and RNA-Seq experiments of S. pneumoniae under nutrient-depletion and antibiotic conditions were performed in chemically defined medium (CDM)^9 and semi-defined minimal medium (SDMM)^10, respectively. RNA-Seq experiments for A. baumannii, S. Typhimurium, E. coll. K. pneumoniae, and S. aureus were performed in Mueller Hinton broth II. Single strain growth assays were performed at least three times using 96-well plates by taking OD600 measurements on a Tecan Infinite 200 PRO plate reader.

S. pneumoniae T4 = assay: as above; type: cell-based, Streptococcus pneumoniae
Experimental: as §1, §2

Escherichia coli AR538 = assay: Fitness outcome under ciprofloxacin (growth curve assay); type: cell-based; details: E. coli AR538
Experimental: (§3) Since the single-timepoint variant of entropy is the most practical (in terms of data collection and cost), the generalizability of entropy to previously unseen species was evaluated using this model. RNA-Seq was performed at 120 min post exposure to 1 μg/mL of CIP. […] Single-timepoint entropy was computed for the transcriptome of each of these previously unseen isolates.
as §2

[1] = tested on: Staphylococcus aureus MN6; assay: as above; type: cell-based; details: S. aureus MN6
Experimental: as §3, §2

[2] = 1 μg/mL ciprofloxacin, listed as CIP
[3] = strain-specific 1xMIC of ciprofloxacin

Question: What does the source list for `O=C(O)c1cn(C2CC2)c2cc(N3CCNCC3)c(F)cc2c1=O` [Ciprofloxacin, ciprofloxacin]?
Answer: Fitness (S. pneumoniae 19F; S. pneumoniae 19F wild-type, growth curves): Low; Survive (real survival outcome) (S. pneumoniae 19F; strain 19F, Adapted FALSE, Concentration L (low)): FALSE; Fitness (S. pneumoniae T4; S. pneumoniae T4 wild-type, 1xMIC antibiotic, growth curves): Low; Survive (real survival outcome) (S. pneumoniae T4; strain T4, Adapted FALSE, Concentration L (low)): FALSE; Fitness (Escherichia coli AR538; 1 μg/mL ciprofloxacin): High; Fitness (Escherichia coli AR538; [2]): insensitive; Fitness (Escherichia coli AR538; 1 μg/mL ciprofloxacin, listed as ciprofloxacin): high fitness; Fitness (Escherichia coli AR538; [3]): Low,; Fitness ([1]; 1 μg/mL ciprofloxacin): High; Fitness [1, 2]: insensitive; Fitness [1, 3]: Low,
